By IC50 is commonly meant the concentration needed to halve the response being measured.

This test concerns the target T1, p38 MAP kinase (Homo sapiens, UniProt Q16539).
T1 construct: made in house; host or cells: E. coli (co-expressed with SEK-1 and MEKK)
The test is described as follows: p38 (MAP) kinase in vitro assay (transfer of γ-33P from ATP to Myelin Basic Protein). To be noted: phosphorylated recombinant p38 MAP kinase, MBP substrate, γ-33P-ATP, 30° C. In kind it is biochemical. How it is done:
This example illustrates a p38 (MAP) kinase in vitro assay useful for evaluating the compounds of the invention.
The p38 MAP kinase inhibitory activity of compounds of this invention in vitro was determined by measuring the transfer of the γ-phosphate from γ-^33P-ATP by p-38 kinase to Myelin Basic Protein (MBP), using a minor modification of the method described in Ahn, et al., J. Biol. Chem. 266:4220-4227 (1991).
The phosphorylated form of the recombinant p38 MAP kinase was co-expressed with SEK-1 and MEKK in E. Coli (see, Khokhlatchev, et al., J. Biol. Chem. 272:11057-11062 (1997)) and then purified by affinity chromatography using a Nickel column.
The phosphorylated p38 MAP kinase was diluted in kinase buffer (20 mM 3-(N-morpholino)propanesulfonic acid, pH 7.2, 25 mM β-glycerol phosphate, 5 mM ethylene glycol-bis(beta-aminoethyl ether)-N,N,N′,N′-tetraacetic acid, 1 mM sodium ortho-vanadate, 1 mM dithiothreitol, 40 mM magnesium chloride). Test compound dissolved in DMSO or only DMSO (control) was added and the samples were incubated for 10 min at 30° C. The kinase reaction was initiated by the addition of a substrate cocktail containing MBP and γ-^33P-ATP. […] The phosphorylated MBP was then separated from the residual γ-^33P-ATP using a phosphocellulose membrane (Millipore, Bedfrod, Mass.) and quantitated using a scintillation counter (Packard, Meriden, Conn.).

T1 sequence (Q16539 whole entry): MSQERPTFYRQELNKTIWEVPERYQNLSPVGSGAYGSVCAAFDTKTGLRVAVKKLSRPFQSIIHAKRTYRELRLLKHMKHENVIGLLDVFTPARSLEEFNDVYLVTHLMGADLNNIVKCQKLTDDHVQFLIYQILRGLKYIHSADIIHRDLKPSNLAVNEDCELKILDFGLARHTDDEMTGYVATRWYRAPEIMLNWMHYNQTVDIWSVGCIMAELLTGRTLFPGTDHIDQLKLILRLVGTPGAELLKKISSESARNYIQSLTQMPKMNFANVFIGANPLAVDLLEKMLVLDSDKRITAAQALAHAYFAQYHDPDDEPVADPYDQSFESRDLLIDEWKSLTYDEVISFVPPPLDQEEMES

For `CNC(=O)c1ccc(C)c(-c2cc3[nH]nc(N4CCCCC4)c3n(C)c2=O)c1` [Compound 8, 4,N-Dimethyl-3-(4-methyl-5-oxo-3-piperidin-1-yl-4,5-dihydro-1H-pyrazolo[4,3-b]pyridin-6-yl)-benzamide], the IC50 is approximately 3 nM.

The record behind these values is patent US20080207684A1, “Kinase inhibitors and methods for using the same” (Roche Palo Alto LLC, priority 2007, published 2008).
